This note sets out measurements from ChEMBL document CHEMBL5154755, “Discovery of Novel Indazoles as Potent and Selective PI3Kδ Inhibitors with High Efficacy for Treatment of Hepatocellular Carcinoma” (J Med Chem, 2022).

Experiment [1] relates to Hep 3B2. Put plainly: cells. Particulars: Homo sapiens, Hep3B, 72 h, read-out: INH.
Experiment [2] deals with Bel-7402. Put plainly: Antiproliferative activity against human Bel-7402 cells assessed as inhibition of cell growth incubated for 72 hrs by SRB assay. Particulars: Bel-7402, 72 h. Format: functional, cell-based. For orientation: In SRB staining, fixed cells bind dye roughly in proportion to their protein.
The test system of experiment [3] is Bel-7402. Put plainly: cells. Particulars: Homo sapiens, Bel-7402, 72 h, read-out: INH.
The subject of experiment [4] is Hep 3B2. Put plainly: Antiproliferative activity against human Hep3B cells assessed as inhibition of cell growth incubated for 72 hrs by SRB assay. Format: functional, cell-based.
In experiment [5] the test system is HepG2. Put plainly: cells. The settings on record: Homo sapiens, HepG2, 72 h, read-out: INH.
For experiment [6], the target named is T1, Phosphatidylinositol 4,5-bisphosphate 3-kinase catalytic subunit delta isoform (Homo sapiens, UniProt O00329).
T1 sequence (O00329 whole entry): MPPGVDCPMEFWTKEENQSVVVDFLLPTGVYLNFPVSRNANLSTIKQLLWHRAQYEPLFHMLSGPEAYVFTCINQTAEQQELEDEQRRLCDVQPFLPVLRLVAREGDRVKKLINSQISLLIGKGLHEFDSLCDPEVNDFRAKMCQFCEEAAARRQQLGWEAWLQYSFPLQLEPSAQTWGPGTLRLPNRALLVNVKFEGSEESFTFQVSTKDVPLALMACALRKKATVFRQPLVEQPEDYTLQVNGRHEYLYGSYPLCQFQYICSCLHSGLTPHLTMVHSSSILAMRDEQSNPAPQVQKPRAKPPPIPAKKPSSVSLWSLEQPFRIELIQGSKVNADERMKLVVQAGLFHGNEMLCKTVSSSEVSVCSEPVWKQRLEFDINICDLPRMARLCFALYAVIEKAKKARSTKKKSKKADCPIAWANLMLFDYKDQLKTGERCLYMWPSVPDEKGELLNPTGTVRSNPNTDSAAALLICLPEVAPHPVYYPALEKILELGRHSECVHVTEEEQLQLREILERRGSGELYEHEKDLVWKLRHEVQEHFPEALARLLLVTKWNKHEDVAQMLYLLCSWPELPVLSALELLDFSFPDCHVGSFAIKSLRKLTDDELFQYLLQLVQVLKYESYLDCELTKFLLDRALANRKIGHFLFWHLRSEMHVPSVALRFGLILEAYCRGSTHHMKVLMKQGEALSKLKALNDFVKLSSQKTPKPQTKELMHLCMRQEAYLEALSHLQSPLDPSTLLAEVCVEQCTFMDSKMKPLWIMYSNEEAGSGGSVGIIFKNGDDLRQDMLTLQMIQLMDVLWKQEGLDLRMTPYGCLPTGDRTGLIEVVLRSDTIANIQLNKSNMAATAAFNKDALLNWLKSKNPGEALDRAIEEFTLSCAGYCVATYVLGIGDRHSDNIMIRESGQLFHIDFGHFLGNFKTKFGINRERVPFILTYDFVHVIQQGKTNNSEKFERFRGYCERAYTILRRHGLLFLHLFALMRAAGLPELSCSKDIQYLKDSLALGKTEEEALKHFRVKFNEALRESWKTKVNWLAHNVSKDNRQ
Put plainly: Inhibition of PI3Kdelta (unknown origin) using PIP2 as substrate incubated for 1 hr in presence of ATP by ADP-Glo assay. Background: ADP-Glo first removes unused ATP, then detects ADP through luciferase.

In experiment [7] the test system is HepG2. Put plainly: cells. Particulars: Homo sapiens, HepG2, 72 h.
Description: Antiproliferative activity against human HepG2 cells assessed as inhibition of cell growth incubated for 72 hrs by SRB assay

Molecules are shown by their SMILES.

The IC50 is the concentration that inhibits the measured activity by half. For `C[C@H](Nc1nc(N)nc(N)c1C#N)c1nn(-c2cccnc2)c2ccccc12`, the inhibition at 10 µM in experiment [1] came to 20%; in experiment [3], 12%; in experiment [5], 10%. The IC50 turned out to be 34.6 µM in experiment [2], 26.5 µM in experiment [4], 0.004 µM in experiment [6] and 32.5 µM in experiment [7].

For `C[C@H](Nc1ncccc1C#N)c1nn(-c2cccnc2)c2cc(F)ccc12`, the results for the inhibition at 10 µM in experiment [1], in experiment [3] and in experiment [5] were 10%, 11% and 24%, respectively. The concentration for half-maximal inhibition (IC50) in experiment [2] was above 40 µM; in experiment [4], above 40 µM; in experiment [6], above 10 µM; in experiment [7], above 40 µM.

With `C[C@H](Nc1ncnc2[nH]cnc12)c1nn(-c2cccnc2)c2cc(Cl)ccc12`, the inhibition at 10 µM in experiment [1] amounted to 13%; in experiment [3], 17%; in experiment [5] it was 13%. For the same compound, the half-maximal inhibitory concentration (IC50) in experiment [2] was above 40 µM; in experiment [4], above 40 µM; in experiment [6], 0.0077 µM; in experiment [7], above 40 µM.

For `C[C@H](Nc1ncnc2[nH]cnc12)c1nn(-c2cccc(S(C)(=O)=O)c2)c2cc(F)ccc12`, the inhibition at 10 µM in experiment [1] was 11%; in experiment [3] it was -16%; in experiment [5], 23%. In addition, the 50% inhibitory concentration (IC50) is 20 µM in experiment [2], 13 µM in experiment [4], 0.0123 µM in experiment [6] and 14.8 µM in experiment [7].

On to `CC(Nc1ncnc2[nH]cnc12)c1nn(-c2cccnc2)c2ccccc12` (racemic), for which the inhibition at 10 µM in experiment [1] is 9%; in experiment [3], 4%; in experiment [5] it was 13%. Also, the IC50 in experiment [2] was determined as 16.1 µM; in experiment [4] it was 40.3 µM; in experiment [6], 0.392 µM; in experiment [7] it was 26.2 µM.

With `C[C@H](Nc1ncnc2[nH]cnc12)c1nn(-c2cccc(F)c2)c2cc(F)ccc12`, the inhibition at 10 µM in experiment [1] was 28%; in experiment [3], -17%; in experiment [5] it was 33%. Moreover, the IC50 was above 40 µM in experiment [2], above 40 µM in experiment [4], 0.485 µM in experiment [6] and 32.3 µM in experiment [7].

In the case of `C[C@H](Nc1nc(N)nc(N)c1C#N)c1nn(-c2cccnc2)c2cc(F)ccc12`, the inhibition at 10 µM in experiment [1] was 30%; in experiment [3] it was 15%; in experiment [5], 29%. For the same compound, the half-maximal inhibitory concentration (IC50) in experiment [2] amounted to 29.8 µM; in experiment [4], 23.8 µM; in experiment [6], 0.0037 µM; in experiment [7] it was 23.2 µM.

With `C[C@H](Nc1ncnc2[nH]cnc12)c1nn(-c2cccnc2)c2ccc(F)cc12`, the inhibition at 10 µM in experiment [1] was 13%; in experiment [3], -22%; in experiment [5], 8%. Also, the half-inhibitory concentration (IC50) in experiment [2] was found to be 31.9 µM; in experiment [4] it was 40.1 µM; in experiment [6], 0.101 µM; in experiment [7], 41.9 µM.

As to `C[C@H](Nc1nc(N)nc(N)c1C#N)c1nn(-c2ccncc2)c2cc(F)ccc12`, the inhibition at 10 µM in experiment [1] came out at 50%; in experiment [3] it was 43%; in experiment [5] it was 84%. For the same compound, the half-inhibitory concentration (IC50) in experiment [2] is 8.31 µM; in experiment [4], 11.6 µM; in experiment [6], 0.0057 µM; in experiment [7], 7.48 µM.

`C[C@H](Nc1ncnc2[nH]cnc12)c1nn(-c2ccc(C#N)cc2)c2cc(F)ccc12`: the inhibition at 10 µM came out at 46% in experiment [1], 0% in experiment [3] and 57% in experiment [5]. Further, the IC50 amounted to 31.5 µM in experiment [2], 13.5 µM in experiment [4], 0.22 µM in experiment [6] and 15.1 µM in experiment [7].

Consider `CC[C@H](Nc1ncnc2[nH]cnc12)c1nn(-c2cccnc2)c2cc(F)ccc12`, for which the figures for the inhibition at 10 µM in experiment [1], in experiment [3] and in experiment [5] were 4%, 12% and 26%, respectively. For the same compound, the IC50 in experiment [2] is 29 µM; in experiment [4], above 40 µM; in experiment [6], 0.059 µM; in experiment [7], 33.9 µM.

With `C[C@H](Nc1ncnc(N)c1C#N)c1nn(-c2cccnc2)c2cc(F)ccc12`, the values for the inhibition at 10 µM in experiment [1], in experiment [3] and in experiment [5] were 30%, -4% and 56%, respectively. The half-maximal inhibitory concentration (IC50) in experiment [2] came out at 37.4 µM; in experiment [4], 19.2 µM; in experiment [6], 0.021 µM; in experiment [7] it was 25.4 µM.

Take `C[C@H](Nc1ncnc2[nH]cnc12)c1nn(-c2cc(F)cc(F)c2)c2cc(F)ccc12`: the inhibition at 10 µM in experiment [1] was 14%; in experiment [3], -8%; in experiment [5], 30%. Further, the concentration for half-maximal inhibition (IC50) in experiment [2] is above 40 µM; in experiment [4] it was above 40 µM; in experiment [6] it was 0.423 µM; in experiment [7], 22.1 µM.

In the case of `C[C@H](Nc1ncnc2[nH]cnc12)c1nn(-c2cccnc2)c2ccccc12`, the results for the inhibition at 10 µM in experiment [1], in experiment [3] and in experiment [5] were 21%, 40% and 62%, respectively. Besides, the IC50 in experiment [2] was 11.2 µM; in experiment [4] it was 36.6 µM; in experiment [6], 0.038 µM; in experiment [7] it was 20.6 µM.

For `C[C@H](Nc1nc(N)nc(N)c1C#N)c1nn(-c2cccnc2)c2cc(C(F)(F)F)ccc12`, the figures for the inhibition at 10 µM in experiment [1], in experiment [3] and in experiment [5] were 69%, 60% and 36%, respectively. Besides, the IC50 in experiment [2] was 3.19 µM; in experiment [4], 9.71 µM; in experiment [6] it was 0.286 µM; in experiment [7] it was 1.68 µM.

As to `Cc1ccc2c(c1)c([C@H](C)Nc1ncnc3[nH]cnc13)nn2-c1cccnc1`, the inhibition at 10 µM in experiment [1] is 8%; in experiment [3] it was -10%; in experiment [5], 18%. Further, the half-inhibitory concentration (IC50) was above 40 µM in experiment [2], above 40 µM in experiment [4], 0.274 µM in experiment [6] and above 40 µM in experiment [7].

Consider `CC(C)[C@H](Nc1ncnc2[nH]cnc12)c1nn(-c2cccnc2)c2cc(F)ccc12`, for which the inhibition at 10 µM in experiment [1] was 4%; in experiment [3], 5%; in experiment [5], 16%. For the same compound, the IC50 in experiment [2] is above 40 µM; in experiment [4], above 40 µM; in experiment [6] it was 0.072 µM; in experiment [7] it was above 40 µM.

On to `C[C@H](Nc1nc(N)nc2[nH]cnc12)c1nn(-c2cccnc2)c2cc(F)ccc12`, for which the inhibition at 10 µM in experiment [1] was 14%; in experiment [3], -5%; in experiment [5] it was 11%. Besides, the half-inhibitory concentration (IC50) in experiment [2] was above 40 µM; in experiment [4] it was above 40 µM; in experiment [6], 0.039 µM; in experiment [7], above 40 µM.

`CC[C@H](Nc1nc(N)nc(N)c1C#N)c1nn(-c2cccnc2)c2cc(F)ccc12`: the inhibition at 10 µM in experiment [1] came out at 32%; in experiment [3], 29%; in experiment [5], 28%. Moreover, the IC50 in experiment [2] was above 40 µM; in experiment [4], 37.5 µM; in experiment [6] it was 0.0021 µM; in experiment [7], above 40 µM.

For `C[C@H](Nc1nc(N)nc(N)c1C#N)c1nn(-c2cccc(S(C)(=O)=O)c2)c2cc(F)ccc12`, the inhibition at 10 µM stood at 36% in experiment [1], 14% in experiment [3] and 24% in experiment [5]. Further, the IC50 in experiment [2] worked out at 22.1 µM; in experiment [4] it was 19.7 µM; in experiment [6], 0.0026 µM; in experiment [7], 19.1 µM.

For the compound `C[C@H](Nc1ncnc2[nH]cnc12)c1nn(-c2ccccn2)c2cc(F)ccc12`, the inhibition at 10 µM in experiment [1] was 12%; in experiment [3], 7%; in experiment [5] it was 22%. Moreover, the 50% inhibitory concentration (IC50) was above 40 µM in experiment [2], above 40 µM in experiment [4], 2.28 µM in experiment [6] and 29.9 µM in experiment [7].

Consider `C[C@H](Nc1ncnc2[nH]cnc12)c1nn(-c2ccncc2)c2cc(F)ccc12`, for which the inhibition at 10 µM is 5% in experiment [1], 16% in experiment [3] and 47% in experiment [5]. The IC50 is above 40 µM in experiment [2], 21.4 µM in experiment [4], 0.052 µM in experiment [6] and 23.1 µM in experiment [7].
